Reference: US20250092022A1, “MUSCARINIC RECEPTOR 4 ANTAGONISTS AND METHODS OF USE” (Neurocrine Biosciences, Inc., priority 2021, published 2025)

Molecular target: human M4 receptor (Homo sapiens (Human), UniProt P08173)
Assay: Binding assay: inhibition of radioligand (tritiated N-methylscopolamine) binding to membranes from CHO cells expressing human M4 receptor
Conditions: CHO cell membranes, 1.5 nM tritiated N-methylscopolamine
Experimental: Binding affinity (Ki) for the compounds was measured by inhibition of radioligand binding to membranes from CHO cells expressing human M4 receptor. Membranes were prepared by nitrogen cavitation and differential centrifugation as previously described (Hoare et al., Mol. Pharmacol. 2003 March; 63(3): 751-65). The radioligand employed was tritiated N-methylscopolamine, used at a concentration of 1.5 nM. A dose-response of twelve concentrations of compound was used, ranging from […]. The assay buffer was 50 mM HEPES, 100 mM NaCl, 5 mM MgCl2, 1 mM ethylenediaminetetraacetic acid, pH-adjusted to pH 7.4. Membranes, radioligand and compound were incubated together for 90 minutes at 37° C., in a total volume of 150 μL in a 96-well plate. Receptor-bound radioligand was then collected by harvesting the assay over glass fiber filters pretreated with polyethylenimine to trap the cell membranes, using rapid vacuum filtration. Harvesting and radioactivity counting was conducted as previously described (see, e.g., Hoare et al., Mol. Pharmacol. 2003 63(3):751-65); Erratum at Mol. Pharmacol. 2005 July; 68(1): 260).

human M4 receptor, sequence (P08173 whole entry): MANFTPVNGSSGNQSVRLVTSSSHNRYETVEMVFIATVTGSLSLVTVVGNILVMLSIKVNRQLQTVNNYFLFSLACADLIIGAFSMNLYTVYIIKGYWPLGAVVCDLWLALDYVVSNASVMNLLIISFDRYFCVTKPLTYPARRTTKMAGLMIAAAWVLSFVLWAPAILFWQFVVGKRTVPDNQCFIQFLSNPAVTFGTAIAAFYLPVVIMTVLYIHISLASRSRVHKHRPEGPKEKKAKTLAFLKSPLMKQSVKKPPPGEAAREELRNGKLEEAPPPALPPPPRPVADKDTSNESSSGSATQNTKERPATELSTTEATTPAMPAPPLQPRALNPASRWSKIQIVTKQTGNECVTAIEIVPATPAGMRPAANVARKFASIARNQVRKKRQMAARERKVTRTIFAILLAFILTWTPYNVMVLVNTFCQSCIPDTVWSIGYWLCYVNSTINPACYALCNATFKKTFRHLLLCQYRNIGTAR

| Structure (SMILES) | Ki [µM] |
| --- | --- |
| CC(C)S(=O)(=O)c1cnc(N2C[C@@H](C)N(C(=O)OC3CC4(C3)CN(Cc3ccccc3)C4)C[C@@H]2C)nc1 [Compound 26, 2-benzyl-2-azaspiro [3.3]heptan-6-yl (2R,5S)-2,5-dimethyl-4-[5-(propane-2-sulfonyl)pyrimidin-2-yl]piperazine-1-carboxylate] | < 0.1 |
| C[C@@H]1CN(c2ncc(OC3CC3)cn2)C[C@H](C)N1C(=O)OC1CC2(C1)CN(Cc1ccccc1)C2 [Compound 46, 2-benzyl-2-azaspiro [3.3]heptan-6-yl (2R,6S)-4-(5-cyclopropoxy-pyrimidin-2-yl)-2,6-dimethylpiperazine-1-carboxylate] | ≥ 0.5 |
| C[C@@H]1CN(c2ncc(OCC(O)C(F)F)cn2)C[C@H](C)N1C(=O)OC1CC2(C1)CN(Cc1ccccc1)C2 (stereo partly drawn) [Compound 54, 2-benzyl-2-azaspiro [3.3]heptan-6-yl (2R,6S)-4-[5-(3,3-difluoro-2-hydroxypropoxy)pyrimidin-2-yl]-2,6-dimethylpiperazine-1-carboxylate] | 0.1 to 0.5 |
| COc1ccccc1CN1CC2(CC(OC(=O)N3[C@H](C)CN(c4ncc(S(C)(=O)=O)cn4)C[C@@H]3C)C2)C1 [Compound 62, 2-[(2-methoxyphenyl)methyl]-2-azaspiro[3.3] heptan-6-yl (2R,6S)-4-(5-methanesulfonylpyrimidin-2-yl)-2,6-dimethyl-piperazine-1-carboxylate] | ≥ 0.5 |
| C[C@@H]1CN(c2ncc(S(=O)(=O)C3CC3)cn2)C[C@H](C)N1C(=O)NC1CC2(C1)CN(Cc1ccccc1)C2 [Compound 3, (2R,6S)-N-{2-benzyl-2-azaspiro[3.3]heptan-6-yl}-4-[5-(cyclopropanesulfonyl)pyrimidin-2-yl]-2,6-dimethylpiperazine-1-carboxamide] | < 0.1 |
| C[C@@H]1CN(c2ncc(S(C)(=O)=O)cn2)[C@@H](C)CN1C(=O)NC1CC2(C1)CN(Cc1ccccc1)C2 [Compound 4, (2R,5S)-N-{2-benzyl-2-azaspiro[3.3]heptan-6-yl}-4-(5-methanesulfonyl-pyrimidin-2-yl)-2,5-dimethylpiperazine-1-carboxamide] | 0.1 to 0.5 |
| C[C@@H]1CN(c2ncc(OCC(C)(C)O)cn2)C[C@H](C)N1C(=O)OC1CC2(C1)CN(Cc1ccccc1)C2 [Compound 59, 2-benzyl-2-azaspiro [3.3]heptan-6-yl (2R,6S)-4-[5-(2-hydroxy-2-methylpropoxy)pyrimidin-2-yl]-2,6-dimethyl-piperazine-1-carboxylate] | 0.1 to 0.5 |
| CCS(=O)(=O)c1cnc(N2CCN(C(=O)NC3CC4(C3)CN(Cc3ccccc3)C4)[C@H](C)C2)nc1 [Compound 7, (2R)-N-{2-benzyl-2-azaspiro[3.3]heptan-6-yl}-4-[5-(ethanesulfonyl)pyrimidin-2-yl]-2-methylpiperazine-1-carboxamide] | 0.1 to 0.5 |
| CC[C@H](O)COc1cnc(N2C[C@@H](C)N(C(=O)OC3CC4(C3)CN(Cc3ccccc3)C4)[C@@H](C)C2)nc1 [Compound 57, 2-benzyl-2-azaspiro [3.3]heptan-6-yl (2R,6S)-4-{5-[(2S)-2-hydroxybutoxy]pyrimidin-2-yl}-2,6-dimethyl-piperazine-1-carboxylate] | 0.1 to 0.5 |
| Cc1nc(N2C[C@@H](C)N(C(=O)OC3CC4(C3)CN(Cc3ccccc3)C4)C[C@@H]2C)ncc1S(C)(=O)=O [Compound 25, 2-benzyl-2-azaspiro [3.3]heptan-6-yl (2R,5S)-4-(5-methane-sulfonyl-4-methyl-pyrimidin-2-yl)-2,5-dimethylpiperazine-1-carboxylate] | < 0.1 |
| Cc1ccc(CN2CC3(CC(OC(=O)N4[C@H](C)CN(c5ncc(S(C)(=O)=O)cn5)C[C@@H]4C)C3)C2)cc1 [Compound 61, 2-[(4-methylphenyl)methyl]-2-azaspiro[3.3] heptan-6-yl (2R,6S)-4-(5-methanesulfonylpyrimidin-2-yl)-2,6-dimethyl-piperazine-1-carboxylate] | ≥ 0.5 |
| C[C@@H]1CN(c2ncc(S(=O)(=O)C(F)F)cn2)[C@@H](C)CN1C(=O)OC1CC2(C1)CN(Cc1ccccc1)C2 [Compound 24, 2-benzyl-2-azaspiro [3.3]heptan-6-yl (2R,5S)-4-(5-difluoromethanesulfonyl-pyrimidin-2-yl)-2,5-dimethylpiperazine-1-carboxylate] | < 0.1 |
| CCS(=O)(=O)c1cnc(N2CCN(C(=O)OC3CC4(C3)CN(Cc3ccccc3)C4)[C@H](C)C2)nc1 [Compound 21, 2-benzyl-2-azaspiro [3.3]heptan-6-yl (2R)-4-[5-(ethanesulfonyl)-pyrimidin-2-yl]-2-methylpiperazine-1-carboxylate] | < 0.1 |
| C[C@@H]1CN(c2ncc([S+](C)[O-])cn2)C[C@H](C)N1C(=O)OC1CC2(C1)CN(Cc1ccccc1)C2 (stereo partly drawn) [Compound 23, 2-benzyl-2-azaspiro [3.3]heptan-6-yl (2R,6S)-4-(5-methane-sulfinylpyrimidin-2-yl)-2,6-dimethylpiperazine-1-carboxylate] | 0.1 to 0.5 |
| C[C@@H]1CN(c2ncc(O)cn2)C[C@H](C)N1C(=O)OC1CC2(C1)CN(Cc1ccccc1)C2 [Compound 51, 2-benzyl-2-azaspiro [3.3]heptan-6-yl (2R,6S)-4-(5-hydroxypyrimidin-2-yl)-2,6-dimethyl-piperazine-1-carboxylate] | ≥ 0.5 |
| C[C@@H]1CN(c2ncc3c(n2)CS(=O)(=O)C3)C[C@H](C)N1C(=O)OC1CC2(C1)CN(Cc1ccccc1)C2 [Compound 43, 2-benzyl-2-azaspiro [3.3]heptan-6-yl (2R,6S)-4-dioxo-5H,7H-6λ^6-thieno [3,4-d]pyrimidin-2-yl}-2,6-dimethylpiperazine-1-carboxylate] | < 0.1 |
| C[C@@H]1CN(c2ncc(S(C)(=O)=O)cn2)C[C@H](C)N1C(=O)OC1CC2(C1)CN(Cc1ccccc1)C2 [Compound 33, 2-benzyl-2-azaspiro [3.3]heptan-6-yl (2R,6S)-4-(5-methane-sulfonylpyrimidin-2-yl)-2,6-dimethylpiperazine-1-carboxylate] | < 0.1 |
| CCS(=O)(=O)c1cnc(N2C[C@@H](C)N(C(=O)NC3CC4(C3)CN(Cc3ccccc3)C4)C[C@@H]2C)nc1 [Compound 5, (2R,5S)-N-{2-benzyl-2-azaspiro[3.3]heptan-6-yl}-4-[5-(ethanesulfonyl)pyrimidin-2-yl]-2,5-dimethylpiperazine-1-carboxamide] | < 0.1 |
| C[C@H](O)COc1cnc(N2C[C@@H](C)N(C(=O)OC3CC4(C3)CN(Cc3ccccc3)C4)[C@@H](C)C2)nc1 [Compound 55, 2-benzyl-2-azaspiro [3.3]heptan-6-yl (2R,6S)-4-{5-[(2S)-2-hydroxypropoxy]pyrimidin-2-yl}-2,6-dimethylpiperazine-1-carboxylate] | ≥ 0.5 |
| C[C@@H]1CN(c2ncc(OCC(O)CF)cn2)C[C@H](C)N1C(=O)OC1CC2(C1)CN(Cc1ccccc1)C2 (stereo partly drawn) [Compound 53, 2-benzyl-2-azaspiro [3.3]heptan-6-yl (2R,6S)-4-[5-(3-fluoro-2-hydroxypropoxy)pyrimidin-2-yl]-2,6-dimethyl-piperazine-1-carboxylate] | ≥ 0.5 |
| C[C@@H]1CN(c2ncc(S(=O)(=O)C3CC3)cn2)CCN1C(=O)OC1CC2(C1)CN(Cc1ccccc1)C2 [Compound 22, 2-benzyl-2-azaspiro [3.3]heptan-6-yl (2R)-4-[5-(cyclopropanesulfonyl)pyrimidin-2-yl]-2-methylpiperazine-1-carboxylate] | < 0.1 |
| CCS(=O)(=O)c1cnc(N2C[C@@H](C)N(C(=O)OC3CC4(C3)CN(Cc3ccccc3)C4)C[C@@H]2C)nc1 [Compound 11, 2-benzyl-2-azaspiro [3.3]heptan-6-yl (2R,5S)-4-[5-(ethane-sulfonyl)pyrimidin-2-yl]-2,5-dimethylpiperazine-1-carboxylate] | < 0.1 |
| CC[C@@H](O)COc1cnc(N2C[C@@H](C)N(C(=O)OC3CC4(C3)CN(Cc3ccccc3)C4)[C@@H](C)C2)nc1 [Compound 58, 2-benzyl-2-azaspiro [3.3]heptan-6-yl (2R,6S)-4-{5-[(2R)-2-hydroxybutoxy]pyrimidin-2-yl}-2,6-dimethyl-piperazine-1-carboxylate] | 0.1 to 0.5 |
| C[C@@H]1CN(c2ncc(S(=O)(=O)C3CC3)cn2)CCN1C(=O)NC1CC2(C1)CN(Cc1ccccc1)C2 [Compound 8, (2R)-N-{2-benzyl-2-azaspiro[3.3]heptan-6-yl}-4-[5-(cyclopropanesulfonyl)pyrimidin-2-yl]-2-methylpiperazine-1-carboxamide] | 0.1 to 0.5 |
| C[C@@H]1CN(c2ncc(S(=O)(=O)C3CC3)cn2)[C@@H](C)CN1C(=O)NC1CC2(C1)CN(Cc1ccccc1)C2 [Compound 6, (2R,5S)-N-{2-benzyl-2-azaspiro[3.3]heptan-6-yl}-4-[5-(cyclopropane-sulfonyl)pyrimidin-2-yl]-2,5-dimethylpiperazine-1-carboxamide] | < 0.1 |
| COc1cnc(N2C[C@@H](C)N(C(=O)OC3CC4(C3)CN(Cc3ccccc3)C4)[C@@H](C)C2)nc1 [Compound 45, 2-benzyl-2-azaspiro [3.3]heptan-2-yl (2R,6S)-4-(5-methoxypyrimidin-2-yl)-2,6-dimethyl-piperazine-1-carboxylate] | ≥ 0.5 |
| CCS(=O)(=O)c1cnc(N2C[C@@H](C)N(C(=O)OC3CC4(C3)CN(Cc3ccccc3)C4)[C@H](C)C2)nc1 [Compound 18, 2-benzyl-2-azaspiro [3.3]heptan-6-yl (2R,6R)-4-[5-(ethane-sulfonyl)pyrimidin-2-yl]-2,6-dimethylpiperazine-1-carboxylate] | 0.1 to 0.5 |
